Results on 9 compounds are retold here after patent publication US20150238626A1, “RECEPTOR LIGAND LINKED CYTOTOXIC MOLECULES” (ONTOCHEM GMBH, priority 2012, published 2015).

In one assay the test system is MCF-7. In words: cells. Format: cell-based, human. As to conditions: 72 h compound treatment. The protocol: (§1) To evaluate the anti-proliferative and cytotoxic effect, respectively, of the compounds, a fluorometric resazurin-based cell viability assay was used. Human cancer and non-cancer cell lines (primarily breast cancer) were seeded with low densities into 96-well plates (1,500-20,000 cells per well), and were allowed to adhere for 24 h. Subsequently, the compounds—dissolved to appropriate concentrations in medium—were added to the cells and incubated for 4-72 h. In case the compound treatment was shorter than 72 h, the incubation solution was discarded, cells were rinsed once with cell culture medium and were allowed to proliferate in compound-free medium until 72 h were reached. Subsequently, medium was replaced by 50 μM resazurin in medium, and the cells were incubated for 2 h. Finally, the conversion of resazurin to resorufin by viable, metabolically active cells was measured using a Synergy 2 multiwell plate reader (BioTek, Bad Friedrichshall, Germany) with 540 nm excitation and 590 nm emission filter setting.
(§2) The cytostatic/cytotoxic effects of the new molecules according to this invention were evaluated by using a fluorometric cell proliferation assay. A panel of cell lines (most of them breast cancer) were treated for 4-72 hours with compound. The fluorometric read-out for cell viability was done after 72 hours in any case.

A further assay concerns HEK293. The assay is described as follows: Fluorometric resazurin-based cell proliferation assay, HEK293. As to conditions: Homo sapiens, 72 h compound treatment. The procedure: as §1, §2
In general terms: The colour change of resazurin is a common sign of viable cells or microbes.

In the next assay the test system is T-47D. In words: Fluorometric resazurin-based cell proliferation assay, T-47D. On the set-up: species or system human. To be noted: for IC50: Homo sapiens, T47D, read-out: IC50 T-47D. The protocol: as §1, §2
The test system of a further assay is 184B5. In words: Fluorometric resazurin-based cell proliferation assay, 184B5. To be noted: Homo sapiens, 72 h compound treatment. The procedure: as §1, §2
Another assay deals with MDA-MB-231. In words: Fluorometric resazurin-based cell proliferation assay, MDA-MB-231. To be noted: Homo sapiens. The protocol: as §1, §2
The test system of assay [1] is panel of cell lines (most of them breast cancer). In words: Cell proliferation assay, statements over the panel of cell lines. To be noted: 72 h treatment. Format: cell-based, human. The procedure: as §1, §2
The test system of another assay is SK-N-MC. The assay is described as follows: Fluorometric resazurin-based cell proliferation assay, SK-N-MC. As to conditions: Homo sapiens, 72 h compound treatment. The protocol:
as §1, §2

A further assay deals with MDA-MB-468. In words: Fluorometric resazurin-based cell proliferation assay, MDA-MB-468. As to conditions: Homo sapiens, read-out: IC50 MDA-MB-468. The protocol: as §1, §2
The next assay has as its system HT-29. In words: Fluorometric resazurin-based cell proliferation assay, HT-29. Details: species or system human. To be noted: 72 h compound treatment. The procedure:
as §1, §2

The subject of assay [2] is breast cancer cell lines (MCF-7, MDA-MB-468). The assay is described as follows: Proteome analysis by SILAC. Format: cell-based, human. To be noted: various breast cancer cell lines. The protocol:
SILAC was used for the examination of compound-mediated protein deregulations in the cells. In a first step, the incorporation rate of ^13C-labeled L-arginine (“heavy” medium) was determined for the used cell lines.
After finished incubation, the cells were harvested and lysed. […] The gel was cut into gel slices and in-gel digested with trypsin. The samples were measured with a LTQ Orbitrap Velos (Thermo Scientific) coupled with a nano-HPLC. The resulting mass spec-data were analyzed using the MaxQuant software.

Assay [3] concerns caspases 3 and 7 in breast cancer cell lines. The assay is described as follows: Apoptosis assay, effector caspases 3 and 7. To be noted: several breast cancer cell lines. The class given is cell-based, human.
Method: Compound-mediated induction of apoptosis was examined using comercially available luminescent caspase assays (Promega, Mannheim, Germany). Human cancer and non-cancer cell lines (primarily breast cancer) were seeded with densities depending on the incubation time into 96-well plates (5,000-20,000 cells per well for 48 h incubations; 15,000-40,000 cells per well for 16-24 h incubations), and were allowed to adhere for 24 h. Subsequently, the compounds—dissolved to appropriate concentrations in medium—were added to the cells in 70 μL per well. Cells were incubated for 16-48 h under standard growth conditions. For the last hour of incubation, 10 μL/well of 8× resazurin solution (400 μM) were added in order to multiplex the caspase activities with the cell number/cell viability. When the incubation was finished, conversion of resazurin to resorufin was measured as described above. […] Luminescence read-out was done using a Synergy 2 multiwell plate reader (BioTek, Bad Friedrichshall, Germany).
Cells were treated with the indicated compound concentrations for 24 h (A, C) and 48 h (B, D), respectively. Subsequently, activation of effector caspases 3/7 was measured using a luminescence-based caspase-Glo™ assay kit (Promega), and cell viability was fluorimetrically detected using a Resazurin-based cell viability assay. […]
Setting [4] is: MDA-MB-231, 72 h, read-out: IC50 MDA-MB-231.

Read-outs that look alike come from different tables or passages of the source.

By IC50 is commonly meant the concentration that inhibits the measured activity by half. For the compound `CCC(C)[C@H](NC(=O)[C@H]1CCCCN1C)C(=O)N(C)[C@H](C[C@@H](OC(C)=O)c1nc(C(=O)N[C@@H](Cc2ccccc2)C[C@H](C)C(=O)O)cs1)C(C)C` (stereo partly drawn) [OC 509], the IC50 in the assay with MCF-7 (Homo sapiens, MCF7) stood at 0.34 nM.
For `CCC(C)[C@H](NC(=O)[C@H]1CCCCN1C)C(=O)N(COC(=O)CC(C)C)[C@H](C[C@@H](OC(C)=O)c1nc(C(=O)N[C@@H](Cc2ccc(O)cc2)C[C@H](C)C(=O)NCCSSc2ccccn2)cs1)C(C)C` (stereo partly drawn) [OC 517], the IC50 was 5.9 nM in the assay with HEK293; 4.9 nM with T-47D (72 h); 6.2 nM in the assay on 184B5; 1.6 nM in the assay with MDA-MB-231 (setting [4]); 1.9 nM with MCF-7 (Homo sapiens, MCF7); 1.1 nM in the assay on SK-N-MC. The IC50 with MDA-MB-468 (MDA-MB-468, 72 h) was determined as 1 nM. For the same compound, the “activity compared to Paclitaxel” value in assay [1] is reported as “several folds more active than Paclitaxel”.
In the case of `CCC(C)[C@H](NC(=O)[C@H]1CCCCN1C)C(=O)N(C)[C@H](C[C@@H](OC(C)=O)c1nc(C(=O)N[C@@H](Cc2ccc(F)cc2)C[C@H](C)C(=O)O)cs1)C(C)C` (stereo partly drawn) [OC 501], the IC50 was found to be 1.2 nM in the assay with HT-29 (Homo sapiens, HT-29); 5.4 nM in the assay on T-47D (72 h); 7.2 nM with MDA-MB-231 (setting [4]); 4.1 nM in the assay on MCF-7 (Homo sapiens, MCF7); 3.6 nM in the assay with MDA-MB-468 (MDA-MB-468, 72 h).
On to `CC(=O)O[C@H]1C(=O)[C@@]2(C)[C@H]([C@H](OC(=O)c3ccccc3)[C@]3(O)C[C@H](OC(=O)[C@H](O)[C@@H](NC(=O)c4ccccc4)c4ccccc4)C(C)=C1C3(C)C)[C@]1(OC(C)=O)CO[C@@H]1C[C@@H]2O` [Paclitaxel, reference compound], for which the IC50 was found to be 30.7 nM in the assay with T-47D (72 h compound treatment); 35.1 nM in the assay with MDA-MB-231 (MDA-MB-231, read-out: IC50 MDA-MB-231, 72 h compound treatment); 25.5 nM in the assay with MCF-7 (Homo sapiens, MCF7); 31.1 nM with MDA-MB-468 (MDA-MB-468, 72 h compound treatment).
As to `CCC(C)[C@H](NC(=O)[C@H]1CCCCN1C)C(=O)N(C)[C@H](C[C@@H](OC(C)=O)c1nc(C(=O)N[C@@H](Cc2ccc(F)cc2)C[C@H](C)C(=O)NCCSSc2ccccn2)cs1)C(C)C` (stereo partly drawn) [OC 169], the IC50 was found to be 18.7 nM in the assay with T-47D (72 h); 26.1 nM in the assay on 184B5; 31 nM with MDA-MB-231 (setting [4]); 18.4 nM in the assay with MCF-7 (Homo sapiens, MCF7); 18.7 nM in the assay with MDA-MB-468 (MDA-MB-468, 72 h). For the same compound, the “regulation of protein expression (SILAC)” value in [2] is listed as “comparable protein regulations”. Also, in [3], the “induction of apoptosis (caspase 3/7 activity)” value is given as “induction of apoptotic cell death mechanisms”.
Regarding `CCCO[C@H](C[C@H](C(C)C)N(CCC)C(=O)[C@@H](NC(=O)[C@H]1CCCCN1C)C(C)CC)c1nc(C(=O)N[C@@H](Cc2ccc(O)cc2)C[C@H](C)C(=O)NCCSSc2ccccn2)cs1` (stereo partly drawn) [OC 516], the IC50 with T-47D (72 h) stood at 0.2 nM.
Take `CCCO[C@H](C[C@H](C(C)C)N(CCC)C(=O)[C@@H](NC(=O)[C@H]1CCCCN1C)C(C)CC)c1nc(C(=O)N[C@@H](Cc2ccc(O)cc2)C[C@H](C)C(=O)O)cs1` (stereo partly drawn) [OC 515]: the IC50 in the assay with T-47D (72 h) and in the assay with 184B5 was 0.09 nM in each case. The “higher efficacy compared to the reference compound Paclitaxel” value in the assay with T-47D (T-47D cells, 72 h treatment) is reported as “up to 300 fold”.
As to `CC[C@H](C)[C@H](NC(=O)[C@H]1CCCCN1C)C(=O)N(COC(=O)CC(C)C)[C@H](C[C@@H](OC(C)=O)c1nc(C(=O)N[C@@H](Cc2ccc(O)cc2)C[C@H](C)C(=O)O)cs1)C(C)C` [Tubulysin A, reference compound], the results for the IC50 in the assay with HT-29 and with MCF-7 were 0.75 nM and 0.6 nM, respectively.
Consider `CCCO[C@H](C[C@H](C(C)C)N(C)C(=O)[C@@H](NC(=O)[C@H]1CCCCN1C)C(C)CC)c1nc(C(=O)N[C@@H](Cc2ccccc2)C[C@H](C)C(=O)O)cs1` (stereo partly drawn) [OC 503], for which the half-inhibitory concentration (IC50) with HT-29 (Homo sapiens, HT-29) was 0.8 nM; in the assay on T-47D (72 h) it was 8.3 nM; in the assay on MDA-MB-231 (setting [4]), 10.9 nM; with MCF-7 (Homo sapiens, MCF7) it was 4.2 nM; in the assay on MDA-MB-468 (MDA-MB-468, 72 h) it was 8.2 nM.
